Test results: the supplement of paper PMC4932681

Columns and labels:
BT-474 Tam1 [1] = assay: drug sensitivity score (DSS) (DSS (dimensionless)); higher = more sensitive; extreme values may be limits of the assay; conditions: 4-OH-tamoxifen in medium 1 µM; 72 h
Procedure: (§1)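 FIMM FO2B library drugs were tested at 5 concentrations (10,000-fold range) for 72 h, with CellTiter-Glo viability normalised to DMSO and benzethonium chloride controls. The Drug Sensitivity Score (DSS) is computed from the fitted logistic dose-response curve (area-based; 0 = inactive). Resistant lines and the 'in 1µM tamoxifen' arms were tested in 1 µM 4-OH-tamoxifen.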

BT-474 Tam2 [2] = assay: as above; conditions: 4-OH-tamoxifen in medium 1 µM; 72 h
Procedure: as §1

BT-474 [3] = assay: as above; conditions: 72 h
Procedure: as §1

MCF-7 Tam1 [4] = assay: as above; conditions: 4-OH-tamoxifen in medium 1 µM; 72 h
Procedure: as §1

MCF-7 [5] = assay: as above; conditions: 72 h
Procedure: as §1

T-47D Tam1 [6] = assay: as above; conditions: 4-OH-tamoxifen in medium 1 µM; 72 h
Procedure: as §1

T-47D Tam2 = assay: as above; conditions: 4-OH-tamoxifen in medium 1 µM; 72 h
Procedure: as §1

T-47D [7] = assay: as above; conditions: 72 h
Procedure: as §1

ZR-75-1 Tam1 [8] = assay: as above; conditions: 4-OH-tamoxifen in medium 1 µM; 72 h
Procedure: as §1

ZR-75-1 Tam2 [9] = assay: as above; conditions: 4-OH-tamoxifen in medium 1 µM; 72 h
Procedure: as §1

ZR-75-1 [10] = assay: as above; conditions: 72 h
Procedure: as §1

BT-474 Tam1 [11] = assay: relative IC50 (midpoint of fitted logistic curve, plateau may be below 50% inhibition; CellTiter-Glo viability); higher = less potent; conditions: 4-OH-tamoxifen in medium 1 µM; 72 h
Procedure: (§2)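 FIMM FO2B library drugs were plated at 5 concentrations spanning a 10,000-fold range in 384-well plates. Cells were incubated for 72 h at 37 °C and viability was read by CellTiter-Glo, normalised to DMSO (0% inhibition) and 100 µM benzethonium chloride (100% inhibition). IC50 values come from logistic dose-response fits (Breeze pipeline). Tamoxifen-resistant lines and the 'in 1µM tamoxifen' parental arms were tested in medium with 1 µM 4-OH-tamoxifen.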

BT-474 Tam2 [12] = assay: as above; conditions: 4-OH-tamoxifen in medium 1 µM; 72 h
Procedure: as §2

BT-474 [13] = assay: as above; conditions: 72 h
Procedure: as §2

MCF-7 Tam1 [14] = assay: as above; conditions: 4-OH-tamoxifen in medium 1 µM; 72 h
Procedure: as §2

MCF-7 [15] = assay: as above; conditions: 72 h
Procedure: as §2

T-47D [16] = assay: as above; conditions: 72 h
Procedure: as §2

ZR-75-1 Tam1 [17] = assay: as above; conditions: 4-OH-tamoxifen in medium 1 µM; 72 h
Procedure: as §2

ZR-75-1 Tam2 [18] = assay: as above; conditions: 4-OH-tamoxifen in medium 1 µM; 72 h
Procedure: as §2

ZR-75-1 [19] = assay: as above; conditions: 72 h
Procedure: as §2

T-47D Tam1 [20] = assay: as above; conditions: 4-OH-tamoxifen in medium 1 µM; 72 h
Procedure: as §2

| SMILES | relative IC50 (BT-474 Tam1 [11]) [nM] | relative IC50 (BT-474 Tam2 [12]) [nM] | relative IC50 (BT-474 [13]; 4-OH-tamoxifen in medium 0 µM) [nM] | relative IC50 (BT-474 [13]; 4-OH-tamoxifen in medium 1 µM) [nM] | relative IC50 (MCF-7 Tam1 [14]) [nM] | relative IC50 (MCF-7 [15]; 4-OH-tamoxifen in medium 0 µM) [nM] | relative IC50 (T-47D [16]; 4-OH-tamoxifen in medium 0 µM) [nM] | relative IC50 (T-47D [16]; 4-OH-tamoxifen in medium 1 µM) [nM] | relative IC50 (MCF-7 [15]; 4-OH-tamoxifen in medium 1 µM) [nM] | relative IC50 (T-47D Tam1 [20]) [nM] | drug sensitivity score (BT-474 Tam1 [1]) | drug sensitivity score (BT-474 Tam2 [2]) | drug sensitivity score (BT-474 [3]; 4-OH-tamoxifen in medium 0 µM) | drug sensitivity score (BT-474 [3]; 4-OH-tamoxifen in medium 1 µM) | drug sensitivity score (MCF-7 Tam1 [4]) | drug sensitivity score (MCF-7 [5]; 4-OH-tamoxifen in medium 0 µM) | drug sensitivity score (MCF-7 [5]; 4-OH-tamoxifen in medium 1 µM) | drug sensitivity score (T-47D Tam1 [6]) | drug sensitivity score (T-47D Tam2) | drug sensitivity score (T-47D [7]; 4-OH-tamoxifen in medium 0 µM) | drug sensitivity score (T-47D [7]; 4-OH-tamoxifen in medium 1 µM) | drug sensitivity score (ZR-75-1 Tam1 [8]) | drug sensitivity score (ZR-75-1 Tam2 [9]) | drug sensitivity score (ZR-75-1 [10]; 4-OH-tamoxifen in medium 0 µM) | drug sensitivity score (ZR-75-1 [10]; 4-OH-tamoxifen in medium 1 µM) | relative IC50 (ZR-75-1 Tam1 [17]) [nM] | relative IC50 (ZR-75-1 Tam2 [18]) [nM] | relative IC50 (ZR-75-1 [19]; 4-OH-tamoxifen in medium 0 µM) [nM] | relative IC50 (ZR-75-1 [19]; 4-OH-tamoxifen in medium 1 µM) [nM] |
| --- | --- | --- | --- | --- | --- | --- | --- | --- | --- | --- | --- | --- | --- | --- | --- | --- | --- | --- | --- | --- | --- | --- | --- | --- | --- | --- | --- | --- | --- |
| C=CC(=O)N1CCC[C@@H](n2nc(-c3ccc(Oc4ccccc4)cc3)c3c(N)ncnc32)C1 | 2.12 | 3.4 | 13.4 | 5.56 | > 1000 | > 1000 | > 1000 | > 1000 |  |  | 31.9 | 29 | 18.1 | 26.2 | 0 | 0 | 2.36 | 2.76 | 0.549 | 0 | 0 | 0 | 0 | 0 | 0 | > 1000 | > 1000 | > 1000 | > 1000 |
| CN(C)C/C=C/C(=O)Nc1cc2c(Nc3ccc(F)c(Cl)c3)ncnc2cc1O[C@H]1CCOC1 [Afatinib (BIBW2992, Tovok)] | 12.4 | 13.1 | 25.7 | 15.8 | > 1000 | > 1000 | > 1000 | > 1000 |  |  | 21.9 | 21.8 | 15.3 | 20.5 | 0 | 0 | 0.328 | 1.83 | 0.583 | 0 | 0 | 0 | 0 | 0 | 0 | > 1000 | > 1000 | > 1000 | > 1000 |
| CC(C)(C)c1cc(NC(=O)Nc2ccc(-c3cn4c(n3)sc3cc(OCCN5CCOCC5)ccc34)cc2)no1 [Quizartinib (AC220)] | > 1000 | > 1000 | > 1000 | > 1000 | > 1000 | > 1000 |  | > 1000 | > 1000 |  | 0 | 0 | 0 | 0 | 0 | 0 | 0 | 0 | 0.279 | 0 | 0 | 0 | 0 | 0 | 0 | > 1000 | > 1000 | > 1000 | > 1000 |
| CN1CCc2c(c3ccccc3n2Cc2ccc(C(=O)NO)cc2)C1 [Tubastatin A] | 3120 |  | > 10000 |  | > 10000 |  | > 10000 | > 10000 |  | > 10000 | 1.77 | 0.145 | 0 | 0.725 | 0 | 0 | 0.884 | 0 | 0 | 0 | 0 | 0.0626 | 0.301 | 0.27 | 0.715 |  |  |  |  |
| C1CN1c1nc(N2CC2)nc(N2CC2)n1 [Triethylenemelamine] | > 10000 | > 10000 | > 10000 | > 10000 | > 10000 | > 10000 | > 10000 | > 10000 | > 10000 |  | 0 | 0 | 0 | 0 | 0 | 0 | 0 | 0.0501 | 0.12 | 0 | 0 | 0 | 0 | 0 | 0 | > 10000 | > 10000 | > 10000 | > 10000 |
| Nc1nc(Cl)nc2c1ncn2[C@@H]1O[C@H](CO)[C@@H](O)[C@@H]1F [Clofarabine] | > 10000 | > 10000 | > 10000 | > 10000 | > 10000 | 490 | 4100 |  |  | 616 | 0 | 0 | 0 | 0 | 0 | 4.41 | 2.44 | 5.4 | 1.77 | 1.21 | 0.982 | 1.26 | 0.782 | 0.522 | 0.104 |  |  |  |  |

Second part, led by results:

| relative IC50 (BT-474 Tam1 [11]) [nM] | relative IC50 (BT-474 Tam2 [12]) [nM] | relative IC50 (BT-474 [13]; 4-OH-tamoxifen in medium 0 µM) [nM] | relative IC50 (BT-474 [13]; 4-OH-tamoxifen in medium 1 µM) [nM] | relative IC50 (MCF-7 Tam1 [14]) [nM] | relative IC50 (MCF-7 [15]; 4-OH-tamoxifen in medium 0 µM) [nM] | relative IC50 (T-47D [16]; 4-OH-tamoxifen in medium 0 µM) [nM] | relative IC50 (T-47D [16]; 4-OH-tamoxifen in medium 1 µM) [nM] | relative IC50 (MCF-7 [15]; 4-OH-tamoxifen in medium 1 µM) [nM] | relative IC50 (T-47D Tam1 [20]) [nM] | SMILES | drug sensitivity score (BT-474 Tam1 [1]) | drug sensitivity score (BT-474 Tam2 [2]) | drug sensitivity score (BT-474 [3]; 4-OH-tamoxifen in medium 0 µM) | drug sensitivity score (BT-474 [3]; 4-OH-tamoxifen in medium 1 µM) | drug sensitivity score (MCF-7 Tam1 [4]) | drug sensitivity score (MCF-7 [5]; 4-OH-tamoxifen in medium 0 µM) | drug sensitivity score (MCF-7 [5]; 4-OH-tamoxifen in medium 1 µM) | drug sensitivity score (T-47D Tam1 [6]) | drug sensitivity score (T-47D Tam2) | drug sensitivity score (T-47D [7]; 4-OH-tamoxifen in medium 0 µM) | drug sensitivity score (T-47D [7]; 4-OH-tamoxifen in medium 1 µM) | drug sensitivity score (ZR-75-1 Tam1 [8]) | drug sensitivity score (ZR-75-1 Tam2 [9]) | drug sensitivity score (ZR-75-1 [10]; 4-OH-tamoxifen in medium 0 µM) | drug sensitivity score (ZR-75-1 [10]; 4-OH-tamoxifen in medium 1 µM) | relative IC50 (ZR-75-1 Tam1 [17]) [nM] | relative IC50 (ZR-75-1 Tam2 [18]) [nM] | relative IC50 (ZR-75-1 [19]; 4-OH-tamoxifen in medium 0 µM) [nM] | relative IC50 (ZR-75-1 [19]; 4-OH-tamoxifen in medium 1 µM) [nM] |
| --- | --- | --- | --- | --- | --- | --- | --- | --- | --- | --- | --- | --- | --- | --- | --- | --- | --- | --- | --- | --- | --- | --- | --- | --- | --- | --- | --- | --- | --- |
| > 10000 | > 10000 | > 10000 | > 10000 | > 10000 | > 10000 | > 10000 | > 10000 |  |  | CC1=C(/C=C/C(C)=C/C=C/C(C)=C/C(=O)O)C(C)(C)CCC1 [Tretinoin] | 0 | 0 | 0 | 0 | 0 | 0 | 0.52 | 0.561 | 0.122 | 0 | 0 | 0 | 0 | 0 | 0 | > 10000 | > 10000 | > 10000 | > 10000 |
| > 1000 | > 1000 | > 1000 | > 1000 | > 1000 | 129 | > 1000 |  | > 1000 |  | NC(=O)Nc1cc(-c2cccc(F)c2)sc1C(=O)N[C@H]1CCCNC1 [AZD7762] | 0 | 0 | 0 | 0 | 0 | 3.41 | 0 | 3 | 2.77 | 0 | 2 | 0 | 0 | 0 | 0 | > 1000 | > 1000 |  | > 1000 |
